Measured values: patent US12729368B2, “Methods and compositions for generating oligodendrocyte progenitor cells” (Trailhead Biosystems Inc., priority 2022, dated 2026)
“And” between values parts separate entries of the source, which are not always exact repeats. Identical values can stand only once.

Experiments:
pre-OPCs [1] = test: HD-DoE 8-factor model for stage 2 (version 2) on pre-OPCs; assay type: cell-based, human; settings: for factor contribution: positive
Procedure: To engineer the recipe of stage 2 of differentiation, cells were first cultured in the stage 1 media described in Example 1, then, 48 or 96 different combinations of effectors generated using Design-of-Experiments compression through D-optimality were robotically prepared. The effector combinations were prepared in a basal media and were subsequently added to the cells, which were then allowed to differentiate. Three days later RNA extraction was performed, and gene expression was obtained using quantitative PCR analysis. The data was normalized and modeled using partial least squares regression analysis to the effector design, resulting in the generation of gene-specific models, which after model tuning for maximal predictive power, provided explanation of the effectors ability to control the expression of individual genes, combinatorically, and individually. Solutions within the tested space could then be explored to address desirability.
At this point, due to short duration of culture (only six days in vitro) we decided to focus on maximal expression of OLIG2 and maintenance of high expression of NKX2-2, while initiating expression of SOX10, OLIG1 and PDGFRa, to guide the cells towards oligodendrocyte fate (Emery and Lu (2015). Cold Spring Harb Perspect Biol. 7:a020461; Perlman et al. (2020). Glia 68:1291-1303; Goldman and Kuypers (2015) Development 142:3983-95). In one 8-factor model, the individual and combinatorial impact of CHIR99021 (a WNT pathway agonist), AGN193109 (an RA pathway antagonist), FGF-2 (an FGFR agonist), Purmorphamine (an SHH pathway agonist), AICAR (an AMPK agonist), GW3965 (an LXR pathway agonist), GW590735 (a PPAR-a agonist) and AZD3147 (a mTOR antagonist) on further differentiation of cells were tested.

pre-OPCs [2] = test: HD-DoE 12-factor model for stage 2 (version 1), 3 days on stage 1 pre-OPCs; assay type: cell-based, human; settings: for factor contribution: optimized for maximum expression of OLIG2 at 1841.6
Description: To engineer the recipe of stage 2 of differentiation, cells were first cultured in the stage 1 media described in Example 1 and then treated with combinations of 8 or 12 factors for 3 days and the gene expression of cells in each condition was modeled. At this point, due to short duration of culture (only six days in vitro), we decided to focus on maximal expression of OLIG2 and maintenance of high expression of NKX2-2, while initiating expression of SOX10, OLIG1 and PDGFRa, to guide the cells towards oligodendrocyte fate (Emery and Lu (2015). Cold Spring Harb Perspect Biol. 7:a020461; Perlman et al. (2020). Glia 68:1291-1303; Goldman and. Kuypers (2015) Development 142:3983-95).
In one 12-factor model, the individual and combinatorial impact of SUN 11602 an agonist for FGF signaling pathway, FGF2, Activin A an activator of one of the receptors of TGF-b superfamily, A 8301, an inhibitor of TGF-b pathway, CHIR99021 a WNT activator, AGN193109 a RA antagonist, MK2206 an AKT inhibitor, Purmorphamine an agonist of SHH signaling pathway, AZD3147 an antagonist of mTOR pathway, MHY1485 an agonist of mTOR pathway, SC79 an agonist of AKT pathway and G06983 an inhibitor of PKC pathway, were tested.
Dynamic profile analysis was used to assess the expression levels of other genes of interests, such as NKX2-2, OLIG1 and SOX10, while the model is maximized for OLIG2. Activin A and SUN 11602 were brought down to zero due to their very low factor contribution. We observed when the model is optimized, the expression level of NKX2-2 is at 3000, PDGFRa at 1000, OLIG1 at 80 and SOX10 at 15 (FIG. 12).

[3] = system: cells cultured in stage 1 and stage 2 differentiation media; test: HD-DoE 8-factor model for stage 3 (version 2); assay type: cell-based, human; settings: positive
Procedure: To further differentiate the cells to an oligodendrocyte progenitor identity, additional HD-DoE experiments were performed on the cells that were cultured in stage 1 and stage 2 differentiation media. After 3 days, gene expression of cells in different combinatorial conditions were investigated. At this time, we focused on maximal expression of signature oligodendrocyte progenitor genes such as SOX10, OLIG1 and PDGFRa (Goldman and Kuypers (2015) Development 142:3983-95: Marques et al. (2016) Science 352:1326-1329). In one 8-factor model, individual and combinatorial effects of TTNPB (an RA agonist), CHIR99021, FGF-2, IGF-1, AGN193109, Purmorphamine, MHY1485 (a mTOR pathway agonist) and SC79 (an AKT pathway agonist) were tested to guide the cells toward a SOX10/PDGFRa positive population. […] CHIR99021 was also positive, with a factor contribution of 8.1 (FIG. 33).
Other positive factors were IGF-1, with a factor contribution of 11.2, CHIR99021, with a factor contribution of 8.5 and TTNPB, with a factor contribution below 1 (FIG. 34).
To confirm the impact of TTNPB, FGF-2 and IGF-1 on a bigger scale, we investigated the expression profile of a larger group of genes defining late oligodendrocyte progenitor population, such as ID2, CSPG4, FYN, SOX8, PLP1 and BCAN (Perlman et al. (2020). Glia 68:1291-1303; Goldman and Kuypers (2015) Development 142:3983-95; van Tilborg et al. (2018) Glia 66:221-238) and neuronal genes such as NEUROD1, NEUROG1 and NEUROG2 in presence of IGF-1, FGF-2 or TTNPB.

stage 2 early-OPCs = test: HD-DoE 12-factor model for stage 3 (version 1) on stage 2 early-OPCs; assay type: cell-based, human; settings: for factor contribution: positive
Procedure: In another model, the effects of Activin A and TTNPB along with LDN193189, MHY1485, PDGF-AA, AICAR, FGF2, CHIR99021, DBZ, MK2206, Purmorphamine and T3+T4 were tested on gene profile of differentiating cells. When this model was optimized for maximum expression of SOX10 at 54.7, we observed Activin A again had positive regulatory impact on its expression, with factor contribution of 4.7. Other positive factors included MK2206, with the highest factor contribution at 16.2, MHY1485 at 11.49, CHIR99021 at 9.6, DBZ at 9.3, FGF2 at 3.6 and PDGF-AA, with factor contribution less than 3 (FIG. 20).
In this model, we also investigated the conditions of expression of another important OPC gene, CSPG4 (Goldman and Kuypers (2015) Development 142:3983-95: van Tilborg et al. (2018) Glia 66:221-238).
Dynamic profile analysis was used to better assess the impact of the factors on our selected genes and find the combination set that can optimize their expression (FIG. 22). According to this analysis, even though Activin A has a positive effect on SOX10, it decreases level of PDGFRa and OLIG1. […] Moreover, SOX10 is one of the main transcription factors of oligodendrocytes, along with OLIG2 and NKX2-2, that has shown the potential to commit the stem cells to oligodendrocytes in reprogramming efforts (Wang et al. (2014) Proc Natl Acad Sci USA 111:E2885-94; Garciá-León et al. (2018) Stem Cell Reports 10:655-672). […] One of the main challenges of differentiating cells to oligodendrocyte fate is controlling the mixed population and increasing the purity of the culture by committing more cells to oligodendrocyte over neuronal identity. Therefore, DBZ was excluded from the final recipe.
At this point, we investigated the expression profile of a larger group of genes defining oligodendrocyte progenitor population at a later stage, including ID2, CNP and BCAN (Perlman et al. (2020). Glia 68:1291-1303; Goldman and Kuypers (2015) Development 142:3983-95). In this model, these genes were expressed at 1900, 660 and 44, respectively.

[4] = system: human pluripotent stem cells; test: HD-DoE #2: 13-factor model, differentiation toward anterior neuroectoderm, gene expression; assay type: cell-based
Description: To further enhance the conditions for oligodendrocyte differentiation from pluripotency, we performed an additional HD-DoE experiment. We obtained additional gene regulatory models that were used for preparation of a differentiation protocol. The basis of this was a 13-factor HD-DoE experiment with focus on initiation of differentiation of cells toward anterior neuroectoderm. In this model, we focused on expression of FEZF2 and OTX2.
As shown in the results summarized in FIG. 4, the model was optimized for highest expression of OTX2 at 12755.9. According to the model of high expression of OTX2, seven effectors had positive contribution including MK2206, PD0325901, CHIR99021, LDN193189, Go6983, PD173074 and BLU9931 with highest factor contribution of 22.2 for MK2206 and lowest factor contribution of 1.7 for PD173074 and BLU9931.
As shown in the results summarized in FIG. 5, the model was optimized for highest expression of FEZF2 at 4466. When the model was optimized for maximum expression level of FEZF2, three effectors including LDN193189 with factor contribution of 19.5, PD0325901 with factor contribution of 14.6 and MK2206 with factor contribution of 12.3 were common with previous condition and three new effectors including purmorphamine-500 nM, XAV939 and SC79 were introduced.
As shown in the results summarized in FIG. 6, to fine-tune the recipe and find the optimum combination of factors for high expression of both OTX2 and FEZF2, dynamic profiling analysis was done. […] Therefore, these two factors were added to the optimized culture recipe.

OPCs = test: HD-DoE 12-factor model for stage 4 on OPCs, 6 days in culture; assay type: cell-based, human
Procedure: To engineer the recipe of stage 4 of differentiation, 48 or 96 different combinations of effectors generated using Design-of-Experiments compression through D-optimality were robotically prepared. The effector combinations were prepared in a basal media and were subsequently added to the cells, which were treated with the stage 1, stage 2 and stage 3 differentiation media as described in the earlier examples to generate OPCs. […] Solutions within the tested space could then be explored to address desirability. […] Benarroch (2009) Neurology 72:1779-1785; Shi et al. (2019) Exp Ther Med, 18:1258-1266).

[5] = dynamic profile, model maximized for OLIG2
[6] = optimized for maximum expression of OLIG1 at 454.7
[7] = optimized for maximum expression of OLIG2 at 3325
[8] = optimized for maximum expression of SOX10 at 54.7
[9] = model optimized for highest expression of OTX2 at 12755.9, positive contribution
[10] = optimized for maximum expression of CSPG4 at 38.6
[11] = dynamic profiling analysis, 13-factor model

For `Cc1nc(-c2ccc(C(F)(F)F)cc2)sc1C(=O)NCc1ccc(OC(C)(C)C(=O)O)cc1` [GW590735], the “impact on SOX10 and NKX2-2 expression” value (pre-OPCs [1]; [5]) was “negative impact”, the factor contribution (pre-OPCs [1]; [6]) was 3.1 and the factor contribution (pre-OPCs [1]; [7]) was 5.4.
In the case of `COc1ccc2c(c1)c(C1=C(c3c[nH]c4ccccc34)C(=O)NC1=O)cn2CCCN(C)C` [Go6983], the “effect on expression of SOX10” value (pre-OPCs [2]; [5]) is reported as “positively regulate”, the “impact on PDGFRA” value (pre-OPCs [2]; [5]) is reported as “significant negative impact” and the factor contribution (pre-OPCs [2]; negative impact) is reported as 10.2 and 10.22.
Compound `Cc1c[nH]c(-c2cnc(NCCNc3ccc(C#N)cn3)nc2-c2ccc(Cl)cc2Cl)n1` [CHIR99021] has a factor contribution ([3]; optimized for SOX10 at 41.04) of 8.1, a factor contribution ([3]; optimized for maximum expression of PDGFRa at 853.4) of 8.5 and a factor contribution (pre-OPCs [1]; [6]) of 22.8. For the same compound, the factor contribution (pre-OPCs [1]; [7]) was 17.96 and the factor contribution (stage 2 early-OPCs; [8]) was 9.6.
Work on `NC1(c2ccc(-c3nc4ccn5c(=O)[nH]nc5c4cc3-c3ccccc3)cc2)CCC1` [MK2206] yielded a factor contribution ([4]; model optimized for highest expression of FEZF2 at 4466, positive) of 12.3, a factor contribution [4, 9] of 22.2 and a factor contribution (stage 2 early-OPCs; [10]) of 5.2. For the same compound, the factor contribution (stage 2 early-OPCs; [8]) was 16.2 and the factor contribution (pre-OPCs [2]; positive regulatory effect) was 5.3.
For `C[C@H]1COCCN1c1cc(C2(S(=O)(=O)C3CC3)CC2)nc(-c2ccc(NC(=S)NCCO)cc2)n1` [AZD3147], the factor contribution (pre-OPCs [1]; [6]) was 26.7 and 26.76, the factor contribution (pre-OPCs [1]; [7]) was 30.2 and the factor contribution (pre-OPCs [2]; positive regulatory effect) was 5.2.
Compound `CCN(CC)CCCCNc1ncc2cc(-c3cc(OC)cc(OC)c3)c(NC(=O)NC(C)(C)C)nc2n1` [PD173074] has a factor contribution [4, 9] of 1.7.
Work on `C=CC(=O)Nc1cccc(C)c1Nc1ncc2cc(-c3c(Cl)c(OC)cc(OC)c3Cl)ccc2n1` [BLU9931] yielded a factor contribution [4, 9] of 1.7.
In the case of `Oc1nc(-c2ccc(C(F)(F)F)cc2)nc2c1CSCC2` [XAV939], the “effect on expression of FEZF2” value [4, 11] is reported as “significant positive effects” and the “impact on expression level of OTX2” value [4, 11] is reported as “no negative impact”.
With PDGF-AA: PDGFR pathway agonist the factor contribution (stage 2 early-OPCs; [10]) was 2.9 and the factor contribution (stage 2 early-OPCs; [8]) was “less than 3”.
`C[C@H](NC(=O)Cc1cc(F)cc(F)c1)C(=O)N[C@@H]1C(=O)N(C)c2ccccc2-c2ccccc21` [GSI-XX] was tested, and the “effect on expression of neuronal genes NeuroG1, NeuroG2 and NeuroD1” value (OPCs; dynamic profile analysis) was “positively regulates” and the factor contribution (OPCs; optimized for CNP at 1790, positive) was 7.
For `NC(=O)c1ncn([C@@H]2O[C@H](CO)[C@@H](O)[C@H]2O)c1N` [AICAR], the factor contribution (OPCs; optimized for PLP1 at 3600, negative impact) was 12 and 11.8 and the “effect on late OPC genes ID2, CNP and BCAN” value (stage 2 early-OPCs; factor effect plots) was “positively regulates”.
In the case of `C[C@H](NC(=O)Cc1cc(F)cc(F)c1)C(=O)N[C@@H]1C(=O)N(C)c2ccccc2-c2ccccc21` [DBZ], the “effect on neuronal genes” value (stage 2 early-OPCs; dynamic profile / factor effect plots) is reported as “increases neuronal genes” and the factor contribution (stage 2 early-OPCs; [8]) is reported as 9.3.
